Patent publication US20230348442A1, “GALECTIN-3 INHIBITING 2-HYDROXYCYCLOALKANE-1-CARBAMOYL DERIVATIVES” (Idorsia Pharmaceuticals Ltd, priority 2020, published 2023)

Target: human Gal-3 (hGal-3) (Homo sapiens (Human), UniProt P17931)
Assay: competitive binding assay: binding of biotinylated hGal-3 to microplate-adsorbed asialofetuin (ASF), spectrophotometric
Conditions: Activity on hGal-3; mean values of several measurements
How it was run: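 Compounds diluted in DMSO competed with biotinylated hGal-3 or hGal-1 (300-1000 ng/mL) for binding to plate-adsorbed asialofetuin for 3 h at 4° C. Bound galectin was detected with streptavidin-peroxidase (80 ng/mL, 1 h, 4° C) and ABTS substrate; IC50 reported as mean of several measurements.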

Sequence of human Gal-3 (hGal-3) (P17931 whole entry): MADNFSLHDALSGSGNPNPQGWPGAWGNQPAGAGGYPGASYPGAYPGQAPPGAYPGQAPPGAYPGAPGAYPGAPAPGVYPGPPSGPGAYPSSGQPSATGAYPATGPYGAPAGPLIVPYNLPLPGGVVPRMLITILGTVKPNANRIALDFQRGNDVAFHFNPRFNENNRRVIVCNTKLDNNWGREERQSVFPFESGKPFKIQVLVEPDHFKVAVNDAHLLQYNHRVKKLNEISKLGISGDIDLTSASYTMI

Compound	IC50
COc1cc(C#N)cc(N(C(=O)[C@@H]2O[C@H](CO)[C@H](O)[C@H](n3cc(-c4ccc(C#N)c(F)c4)nn3)[C@H]2OC)[C@H]2CCC[C@@H]2O)c1 [Example 1.16.9, (2R,3R,4S,5R,6R)-4-(4-(4-cyano-3-fluorophenyl)-1H-1,2,3-triazol-1-yl)-N-(3-cyano-5-methoxyphenyl)-5-hydroxy-N-((1S,2S)-2-hydroxycyclopentyl)-6-(hydroxymethyl)-3-methoxytetrahydro-2H-pyran-2-carboxamide]	0.256 µM
COc1cc(C#N)cc(N(C(=O)[C@@H]2O[C@H](CO)[C@H](O)[C@H](n3cc(-c4ccc(C#N)c(F)c4)nn3)[C@H]2OC)[C@@H]2CCC[C@H]2O)c1 [Example 1.16.9R, (2R,3R,4S,5R,6R)-4-(4-(4-cyano-3-fluorophenyl)-1H-1,2,3-triazol-1-yl)-N-(3-cyano-5-methoxyphenyl)-5-hydroxy-N-((1R,2R)-2-hydroxycyclopentyl)-6-(hydroxymethyl)-3-methoxytetrahydro-2H-pyran-2-carboxamide]	1.46 µM
CO[C@@H]1[C@@H](n2cc(-c3cc(F)c(Cl)c(Cl)c3)nn2)[C@@H](O)[C@@H](CO)O[C@H]1C(=O)N(c1cc(Cl)cc(C#N)c1)[C@H]1CCC[C@@H]1O [Example 1.17.4, (2R,3R,4S,5R,6R)-N-(3-chloro-5-cyanophenyl)-4-(4-(3,4-dichloro-5-fluorophenyl)-1H-1,2,3-triazol-1-yl)-5-hydroxy-N-((1S,2S)-2-hydroxycyclopentyl)-6-(hydroxymethyl)-3-methoxytetrahydro-2H-pyran-2-carboxamide]	0.0297 µM
CO[C@@H]1[C@@H](n2cc(-c3cc(F)c(Cl)c(Cl)c3)nn2)[C@@H](O)[C@@H](CO)O[C@H]1C(=O)N(c1cc(Cl)cc(C#N)c1)[C@@H]1CCC[C@H]1O [Example 1.17.4R, (2R,3R,4S,5R,6R)-N-(3-chloro-5-cyanophenyl)-4-(4-(3,4-dichloro-5-fluorophenyl)-1H-1,2,3-triazol-1-yl)-5-hydroxy-N-((1R,2R)-2-hydroxycyclopentyl)-6-(hydroxymethyl)-3-methoxytetrahydro-2H-pyran-2-carboxamide]	0.238 µM
CO[C@@H]1[C@@H](n2cc(-c3cc(F)c(Cl)c(Cl)c3)nn2)[C@@H](O)[C@@H](CO)O[C@H]1C(=O)N(c1cc(Br)cc(C#N)c1)[C@H]1CCC[C@@H]1O [Example 1.17.5, (2R,3R,4S,5R,6R)-N-(3-bromo-5-cyanophenyl)-4-(4-(3,4-dichloro-5-fluorophenyl)-1H-1,2,3-triazol-1-yl)-5-hydroxy-N-((1S,2S)-2-hydroxycyclopentyl)-6-(hydroxymethyl)-3-methoxytetrahydro-2H-pyran-2-carboxamide]	0.0463 µM
CO[C@@H]1[C@@H](n2cc(-c3ccc(Cl)cc3)nn2)[C@@H](O)[C@@H](CO)O[C@H]1C(=O)N(c1cc(Cl)cc(C#N)c1)[C@H]1CCC[C@@H]1O [Example 1.18.4, (2R,3R,4S,5R,6R)-N-(3-chloro-5-cyanophenyl)-4-(4-(4-chlorophenyl)-1H-1,2,3-triazol-1-yl)-5-hydroxy-N-((1S,2S)-2-hydroxycyclopentyl)-6-(hydroxymethyl)-3-methoxytetrahydro-2H-pyran-2-carboxamide]	0.0907 µM
CO[C@@H]1[C@@H](n2cc(-c3ccc(Cl)cc3)nn2)[C@@H](O)[C@@H](CO)O[C@H]1C(=O)N(c1cc(Cl)cc(C#N)c1)[C@@H]1CCC[C@H]1O [Example 1.18.4R, (2R,3R,4S,5R,6R)-N-(3-chloro-5-cyanophenyl)-4-(4-(4-chlorophenyl)-1H-1,2,3-triazol-1-yl)-5-hydroxy-N-((1R,2R)-2-hydroxycyclopentyl)-6-(hydroxymethyl)-3-methoxytetrahydro-2H-pyran-2-carboxamide]	0.536 µM
CO[C@@H]1[C@@H](n2cc(-c3ccc(Br)cc3)nn2)[C@@H](O)[C@@H](CO)O[C@H]1C(=O)N(c1cc(Cl)cc(C#N)c1)[C@H]1CCC[C@@H]1O [Example 1.19.4, (2R,3R,4S,5R,6R)-4-(4-(4-bromophenyl)-1H-1,2,3-triazol-1-yl)-N-(3-chloro-5-cyanophenyl)-5-hydroxy-N-((1S,2S)-2-hydroxycyclopentyl)-6-(hydroxymethyl)-3-methoxytetrahydro-2H-pyran-2-carboxamide]	0.163 µM
CO[C@@H]1[C@@H](n2cc(-c3ccc(Br)cc3)nn2)[C@@H](O)[C@@H](CO)O[C@H]1C(=O)N(c1cc(Cl)cc(C#N)c1)[C@@H]1CCC[C@H]1O [Example 1.19.4R, (2R,3R,4S,5R,6R)-4-(4-(4-bromophenyl)-1H-1,2,3-triazol-1-yl)-N-(3-chloro-5-cyanophenyl)-5-hydroxy-N-((1R,2R)-2-hydroxycyclopentyl)-6-(hydroxymethyl)-3-methoxytetrahydro-2H-pyran-2-carboxamide]	0.312 µM
CO[C@@H]1[C@@H](n2cc(-c3ccc(F)c(F)c3F)nn2)[C@@H](O)[C@@H](CO)O[C@H]1C(=O)N(c1cc(Cl)cc(C#N)c1)[C@H]1CCC[C@@H]1O [Example 1.20.4, (2R,3R,4S,5R,6R)-N-(3-chloro-5-cyanophenyl)-5-hydroxy-N-((1S,2S)-2-hydroxycyclopentyl)-6-(hydroxymethyl)-3-methoxy-4-(4-(2,3,4-trifluorophenyl)-1H-1,2,3-triazol-1-yl)tetrahydro-2H-pyran-2-carboxamide]	0.0257 µM
CO[C@@H]1[C@@H](n2cc(-c3ccc(F)c(F)c3F)nn2)[C@@H](O)[C@@H](CO)O[C@H]1C(=O)N(c1cc(Br)cc(C#N)c1)[C@H]1CCC[C@@H]1O [Example 1.20.5, (2R,3R,4S,5R,6R)-N-(3-bromo-5-cyanophenyl)-5-hydroxy-N-((1S,2S)-2-hydroxycyclopentyl)-6-(hydroxymethyl)-3-methoxy-4-(4-(2,3,4-trifluorophenyl)-1H-1,2,3-triazol-1-yl)tetrahydro-2H-pyran-2-carboxamide]	0.0287 µM
CC(=O)O[C@@H]1[C@@H](n2cc(-c3cc(F)c(F)c(F)c3)nn2)[C@@H](O)[C@@H](CO)O[C@H]1C(=O)N(c1cc(Cl)cc(Cl)c1)[C@H]1CCC[C@@H]1O [Example 1A.1.2, (2R,3R,4S,5R,6R)-2-((3,5-dichlorophenyl)((1S,2S)-2-hydroxycyclopentyl)carbamoyl)-5-hydroxy-6-(hydroxymethyl)-4-(4-(3,4,5-trifluorophenyl)-1H-1,2,3-triazol-1-yl)tetrahydro-2H-pyran-3-yl acetate]	0.023 µM
CC(=O)O[C@@H]1[C@@H](n2cc(-c3cc(F)c(F)c(F)c3)nn2)[C@@H](O)[C@@H](CO)O[C@H]1C(=O)N(c1cc(Cl)cc(C#N)c1)[C@H]1CCC[C@@H]1O [Example 1A.1.4, (2R,3R,4S,5R,6R)-2-((3-chloro-5-cyanophenyl)((1S,2S)-2-hydroxycyclopentyl)carbamoyl)-5-hydroxy-6-(hydroxymethyl)-4-(4-(3,4,5-trifluorophenyl)-1H-1,2,3-triazol-1-yl)tetrahydro-2H-pyran-3-yl acetate]	0.0253 µM
CC(=O)O[C@@H]1[C@@H](n2cc(-c3cc(F)c(C)c(F)c3)nn2)[C@@H](O)[C@@H](CO)O[C@H]1C(=O)N(c1cc(Cl)cc(Cl)c1)[C@H]1CCC[C@@H]1O [Example 1A.4.2, (2R,3R,4S,5R,6R)-2-((3,5-dichlorophenyl)((1S,2S)-2-hydroxycyclopentyl)carbamoyl)-4-(4-(3,5-difluoro-4-methylphenyl)-1H-1,2,3-triazol-1-yl)-5-hydroxy-6-(hydroxymethyl)tetrahydro-2H-pyran-3-yl acetate]	0.0129 µM
CC(=O)O[C@@H]1[C@@H](n2cc(-c3cc(F)c(C)c(F)c3)nn2)[C@@H](O)[C@@H](CO)O[C@H]1C(=O)N(c1cc(Cl)cc(C#N)c1)[C@H]1CCC[C@@H]1O [Example 1A.4.4, (2R,3R,4S,5R,6R)-2-((3-chloro-5-cyanophenyl)((1S,2S)-2-hydroxycyclopentyl)carbamoyl)-4-(4-(3,5-difluoro-4-methylphenyl)-1H-1,2,3-triazol-1-yl)-5-hydroxy-6-(hydroxymethyl)tetrahydro-2H-pyran-3-yl acetate]	0.0268 µM
CC(=O)O[C@@H]1[C@@H](n2cc(-c3cc(F)c(Cl)c(F)c3)nn2)[C@@H](O)[C@@H](CO)O[C@H]1C(=O)N(c1cc(Cl)cc(Cl)c1)[C@H]1CCC[C@@H]1O [Example 1A.5.2, (2R,3R,4S,5R,6R)-4-(4-(4-chloro-3,5-difluorophenyl)-1H-1,2,3-triazol-1-yl)-2-((3,5-dichlorophenyl)((1S,2S)-2-hydroxycyclopentyl)carbamoyl)-5-hydroxy-6-(hydroxymethyl)tetrahydro-2H-pyran-3-yl acetate]	0.0198 µM
CC(=O)O[C@@H]1[C@@H](n2cc(-c3cc(F)c(Cl)c(F)c3)nn2)[C@@H](O)[C@@H](CO)O[C@H]1C(=O)N(c1cc(Cl)cc(C#N)c1)[C@H]1CCC[C@@H]1O [Example 1A.5.4, (2R,3R,4S,5R,6R)-4-(4-(4-chloro-3,5-difluorophenyl)-1H-1,2,3-triazol-1-yl)-2-((3-chloro-5-cyanophenyl)((1S,2S)-2-hydroxycyclopentyl)carbamoyl)-5-hydroxy-6-(hydroxymethyl)tetrahydro-2H-pyran-3-yl acetate]	0.0164 µM
N#Cc1cc(Cl)cc(N(C(=O)[C@@H]2O[C@H](CO)[C@H](O)[C@H](n3cc(-c4cc(F)c(F)c(F)c4)nn3)[C@H]2O)[C@H]2CCC[C@@H]2O)c1 [Example 1H.1.4, (2R,3R,4S,5R,6R)-N-(3-chloro-5-cyanophenyl)-3,5-dihydroxy-N-((1S,2S)-2-hydroxycyclopentyl)-6-(hydroxymethyl)-4-(4-(3,4,5-trifluorophenyl)-1H-1,2,3-triazol-1-yl)tetrahydro-2H-pyran-2-carboxamide]	0.0289 µM
Cc1c(F)cc(-c2cn([C@H]3[C@@H](O)[C@@H](CO)O[C@@H](C(=O)N(c4cc(Cl)cc(Cl)c4)[C@H]4CCC[C@@H]4O)[C@@H]3O)nn2)cc1F [Example 1H.4.2, (2R,3R,4S,5R,6R)-N-(3,5-dichlorophenyl)-4-(4-(3,5-difluoro-4-methylphenyl)-1H-1,2,3-triazol-1-yl)-3,5-dihydroxy-N-((1S,2S)-2-hydroxycyclopentyl)-6-(hydroxymethyl)tetrahydro-2H-pyran-2-carboxamide]	0.0227 µM
